Results on 27 molecules are retold here after patent US10183950B2, “Thienopyrimidine inhibitors of atypical protein kinase C” (Cancer Research Technology Limited, priority 2011, dated 2019).

The structures appear in SMILES notation.

This test addresses T1, full-length human PKCι (Homo sapiens, UniProt P41743).
T1 construct: Recombinant, full-length human PKCι expressed in Sf21 insect cells is also commercially available; purchased; host or cells: Sf21 insect cells
T1 sequence (P41743 1-596): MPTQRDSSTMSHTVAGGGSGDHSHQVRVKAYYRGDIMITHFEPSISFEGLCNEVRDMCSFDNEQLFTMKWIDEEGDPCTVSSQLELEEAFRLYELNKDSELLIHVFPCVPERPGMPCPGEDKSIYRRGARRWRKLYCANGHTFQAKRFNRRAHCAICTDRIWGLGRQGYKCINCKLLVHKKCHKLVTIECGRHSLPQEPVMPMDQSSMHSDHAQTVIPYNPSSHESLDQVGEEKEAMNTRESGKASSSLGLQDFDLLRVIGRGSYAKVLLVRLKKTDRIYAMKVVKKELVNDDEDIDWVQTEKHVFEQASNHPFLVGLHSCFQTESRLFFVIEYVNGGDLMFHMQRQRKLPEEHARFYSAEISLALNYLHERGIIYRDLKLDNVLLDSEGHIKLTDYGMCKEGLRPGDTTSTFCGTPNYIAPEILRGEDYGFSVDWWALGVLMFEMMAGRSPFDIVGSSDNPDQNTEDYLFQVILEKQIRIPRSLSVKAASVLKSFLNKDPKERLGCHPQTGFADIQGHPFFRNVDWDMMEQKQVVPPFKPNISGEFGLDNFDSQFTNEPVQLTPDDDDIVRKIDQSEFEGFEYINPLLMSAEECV
The test is described as follows: PKCι IC50 IMAP fluorescence polarisation assay, full-length enzyme. It is filed as biochemical. Conditions: full length PKCi at 15 μM ATP; read-out: IC50 in IMAP assay against full length PKCi.
On to `COc1cccc(-c2c(C(C)(C)C)sc3c(NC[C@@H](N)Cc4ccccc4)nc(-c4ccncc4)nc23)c1` [compound 441, (S)-N*1*-[6-tert-Butyl-7-(3-methoxy-phenyl)-2-pyridin-4-yl-thieno[3,2-d]pyrimidin-4-yl]-3-phenyl-propane-1,2-diamine], for which the IC50 lay in the range of 10 to 40 µM.
Next, `CC(C)(C)c1sc2c(NC[C@@H](N)Cc3ccccc3)nc(-c3ccncc3)nc2c1-c1ccc(F)cc1` [compound 442, (S)-N*1*-[6-tert-Butyl-7-(4-fluoro-phenyl)-2-pyridin-4-yl-thieno[3,2-d]pyrimidin-4-yl]-3-phenyl-propane-1,2-diamine]: 10 to 40 µM.
Next, `CC(C)(C)c1sc2c(NC[C@@H](N)Cc3ccccc3)nc(-c3ccncc3)nc2c1-c1ccc(F)nc1` [compound 443, (S)-N*1*-[6-tert-Butyl-7-(6-fluoro-pyridin-3-yl)-2-pyridin-4-yl-thieno[3,2-d]pyrimidin-4-yl]-3-phenyl-propane-1,2-diamine]: 10 to 40 µM; `CC(C)(C)c1sc2c(NC[C@@H](N)Cc3ccccc3)nc(-c3ccncc3)nc2c1-c1cccc(N)c1` [compound 444, (S)-N*1*-[7-(3-Amino-phenyl)-6-tert-butyl-2-pyridin-4-yl-thieno[3,2-d]pyrimidin-4-yl]-3-phenyl-propane-1,2-diamine]: 10 to 40 µM.
For `CC(C)(C)c1sc2c(NC[C@@H](N)Cc3ccccc3)nc(-c3ccncc3)nc2c1-c1ccoc1` [compound 445, (S)-N*1*-(6-tert-Butyl-7-furan-3-yl-2-pyridin-4-yl-thieno[3,2-d]pyrimidin-4-yl)-3-phenyl-propane-1,2-diamine] the value was 10 to 40 µM; for `Cc1sc2c(NC[C@@H](N)Cc3ccccc3)nc(-c3ccncc3)nc2c1-c1cc(F)ccc1OC(C)C` [compound 446, (S)-N*1*-[7-(5-Fluoro-2-isopropoxy-phenyl)-6-methyl-2-pyridin-4-yl-thieno[3,2-d]pyrimidin-4-yl]-3-phenyl-propane-1,2-diamine], 10 to 40 µM.
Turning to `Cc1ccc(-c2c(C(C)(C)C)sc3c(NC[C@@H](N)Cc4ccccc4)nc(-c4ccncc4)nc23)s1` [compound 447, (S)-N*1*-[6-tert-Butyl-7-(5-methyl-thiophen-2-yl)-2-pyridin-4-yl-thieno[3,2-d]pyrimidin-4-yl]-3-phenyl-propane-1,2-diamine], the IC50 was in the range of 1 to 10 µM.
Regarding `CNc1ccc(-c2c(C(C)(C)C)sc3c(NC[C@@H](N)Cc4ccccc4)nc(-c4ccncc4)nc23)cc1` [compound 448, (S)-N*1*-[6-tert-Butyl-7-(4-methylamino-phenyl)-2-pyridin-4-yl-thieno[3,2-d]pyrimidin-4-yl]-3-phenyl-propane-1,2-diamine], the IC50 is 1 to 10 µM.
As for `Cc1sc2c(NC[C@@H](N)Cc3ccccc3)nc(-c3ccncc3)nc2c1-c1ccccc1` [compound 449, (S)-N*1*-(6-Methyl-7-phenyl-2-pyridin-4-yl-thieno[3,2-d]pyrimidin-4-yl)-3-phenyl-propane-1,2-diamine], the IC50 fell in the range of 1 to 10 µM.
As for `COc1ccc(C)cc1-c1c(C)sc2c(NC[C@@H](N)Cc3ccccc3)nc(-c3ccncc3)nc12` [compound 450, (S)-N*1*-[7-(2-Methoxy-5-methyl-phenyl)-6-methyl-2-pyridin-4-yl-thieno[3,2-d]pyrimidin-4-yl]-3-phenyl-propane-1,2-diamine], the IC50 lay within 10 to 40 µM.
As for `CC(C)(C)c1sc2c(NC[C@@H](N)Cc3ccccc3)nc(-c3ccncc3)nc2c1-c1ccccc1` [compound 451, (S)-N*1*-(6-tert-Butyl-7-phenyl-2-pyridin-4-yl-thieno[3,2-d]pyrimidin-4-yl)-3-phenyl-propane-1,2-diamine], the IC50 lay in the range of 10 to 40 µM.
Take `Cc1sc2c(NC[C@@H](N)Cc3ccccc3)nc(-c3ccncc3)nc2c1-c1c(Cl)cccc1C(F)(F)F` [compound 452, (S)-N*1*-[7-(2-Chloro-6-trifluoromethyl-phenyl)-6-methyl-2-pyridin-4-yl-thieno[3,2-d]pyrimidin-4-yl]-3-phenyl-propane-1,2-diamine]: the IC50 is 10 to 40 µM.
For `COc1cccc(Cl)c1-c1c(C)sc2c(NC[C@@H](N)Cc3ccccc3)nc(-c3ccncc3)nc12` [compound 453, (S)-N*1*-[7-(2-Chloro-6-methoxy-phenyl)-6-methyl-2-pyridin-4-yl-thieno[3,2-d]pyrimidin-4-yl]-3-phenyl-propane-1,2-diamine], the IC50 lay within 10 to 40 µM.
Take `COc1cccc(OC)c1-c1c(C)sc2c(NC[C@@H](N)Cc3ccccc3)nc(-c3ccncc3)nc12` [compound 454, (S)-N*1*-[7-(2,6-Dimethoxy-phenyl)-6-methyl-2-pyridin-4-yl-thieno[3,2-d]pyrimidin-4-yl]-3-phenyl-propane-1,2-diamine]: the IC50 was 10 to 40 µM.
For `COc1cccc(OCC(C)C)c1-c1c(C)sc2c(NC[C@@H](N)Cc3ccccc3)nc(-c3ccncc3)nc12` [compound 455, (S)-N*1*-[7-(2-Isobutoxy-6-methoxy-phenyl)-6-methyl-2-pyridin-4-yl-thieno[3,2-d]pyrimidin-4-yl]-3-phenyl-propane-1,2-diamine] the value was 10 to 40 µM; for `COc1cnccc1-c1c(C)sc2c(NC[C@@H](N)Cc3ccccc3)nc(-c3ccncc3)nc12` [compound 456, (S)-N*1*-[7-(3-Methoxy-pyridin-4-yl)-6-methyl-2-pyridin-4-yl-thieno[3,2-d]pyrimidin-4-yl]-3-phenyl-propane-1,2-diamine], 10 to 40 µM; for `Cc1nc(C)c(-c2c(C)sc3c(NC[C@@H](N)Cc4ccccc4)nc(-c4ccncc4)nc23)s1` [compound 457, (S)-N*1*-[7-(2,4-Dimethyl-thiazol-5-yl)-6-methyl-2-pyridin-4-yl-thieno[3,2-d]pyrimidin-4-yl]-3-phenyl-propane-1,2-diamine], 10 to 40 µM.
Turning to `Cc1ccc(OC(C)C)c(-c2c(C)sc3c(NC[C@@H](N)Cc4ccccc4)nc(-c4ccncc4)nc23)c1` [compound 458, (S)-N*1*-[7-(2-Isopropoxy-5-methyl-phenyl)-6-methyl-2-pyridin-4-yl-thieno[3,2-d]pyrimidin-4-yl]-3-phenyl-propane-1,2-diamine], the IC50 is 10 to 40 µM.
For `Cc1ncccc1-c1c(C)sc2c(NC[C@@H](N)Cc3ccccc3)nc(-c3ccncc3)nc12` [compound 459, (S)-N*1*-[6-Methyl-7-(2-methyl-pyridin-3-yl)-2-pyridin-4-yl-thieno[3,2-d]pyrimidin-4-yl]-3-phenyl-propane-1,2-diamine] the value was 10 to 40 µM; for `Cc1sc2c(NC[C@@H](N)Cc3ccccc3)nc(-c3ccncc3)nc2c1-c1cc(Cl)ccc1OC(C)C` [compound 460, (S)-N*1*-[7-(5-Chloro-2-isopropoxy-phenyl)-6-methyl-2-pyridin-4-yl-thieno[3,2-d]pyrimidin-4-yl]-3-phenyl-propane-1,2-diamine], 10 to 40 µM; for `COc1ccc(C(C)(C)C)cc1-c1c(C)sc2c(NC[C@@H](N)Cc3ccccc3)nc(-c3ccncc3)nc12` [compound 461, (S)-N*1*-[7-(5-tert-Butyl-2-methoxy-phenyl)-6-methyl-2-pyridin-4-yl-thieno[3,2-d]pyrimidin-4-yl]-3-phenyl-propane-1,2-diamine], 10 to 40 µM.
In the case of `COc1ccc(C(C)C)cc1-c1c(C)sc2c(NC[C@@H](N)Cc3ccccc3)nc(-c3ccncc3)nc12` [compound 462, (S)-N*1*-[7-(5-Isopropyl-2-methoxy-phenyl)-6-methyl-2-pyridin-4-yl-thieno[3,2-d]pyrimidin-4-yl]-3-phenyl-propane-1,2-diamine], the IC50 lay in the range of 10 to 40 µM.
`CCOc1ccc(Cl)cc1-c1c(C)sc2c(NC[C@@H](N)Cc3ccccc3)nc(-c3ccncc3)nc12` [compound 463, (S)-N*1*-[7-(5-Chloro-2-ethoxy-phenyl)-6-methyl-2-pyridin-4-yl-thieno[3,2-d]pyrimidin-4-yl]-3-phenyl-propane-1,2-diamine]: the IC50 lay in the range of 10 to 40 µM.
As for `COc1ccc(C(F)(F)F)cc1-c1c(C)sc2c(NC[C@@H](N)Cc3ccccc3)nc(-c3ccncc3)nc12` [compound 464, (S)-N*1*-[7-(2-Methoxy-5-trifluoromethyl-phenyl)-6-methyl-2-pyridin-4-yl-thieno[3,2-d]pyrimidin-4-yl]-3-phenyl-propane-1,2-diamine], the IC50 lay in the range of 10 to 40 µM.
For `COc1ncccc1-c1c(C)sc2c(NC[C@@H](N)Cc3ccccc3)nc(-c3ccncc3)nc12` [compound 465, (S)-N*1*-[7-(2-Methoxy-pyridin-3-yl)-6-methyl-2-pyridin-4-yl-thieno[3,2-d]pyrimidin-4-yl]-3-phenyl-propane-1,2-diamine] the value was 10 to 40 µM; for `COc1ccc(OC)c(-c2c(C)sc3c(NC[C@@H](N)Cc4ccccc4)nc(-c4ccncc4)nc23)c1` [compound 466, (S)-N*1*-[7-(2,5-Dimethoxy-phenyl)-6-methyl-2-pyridin-4-yl-thieno[3,2-d]pyrimidin-4-yl]-3-phenyl-propane-1,2-diamine], 10 to 40 µM.
Next, `COc1ccc(F)cc1-c1c(C)sc2c(NC[C@@H](N)Cc3ccccc3)nc(-c3ccncc3)nc12` [compound 467, (S)-N*1*-[7-(5-Fluoro-2-methoxy-phenyl)-6-methyl-2-pyridin-4-yl-thieno[3,2-d]pyrimidin-4-yl]-3-phenyl-propane-1,2-diamine]: 10 to 40 µM.
